SMILES	melting point
COC[C@H]1CCCN1NC(=O)Nc1cccc2c1C(=O)c1c-2n[nH]c1-c1ccc(C(=O)N2CCN(C)CC2)s1	181 to 183 °C
CCNc1ccc2nc(Cl)c(S(N)(=O)=O)n2n1	218 to 220 °C
O=C1N(Cc2ccccn2)c2cccc(-c3cnc4ccccc4c3)c2C12COc1cc3c(cc12)OCCO3 (centres undefined)	228 to 230 °C
CC(=O)OC1CSC(Oc2ccc(C(C)=O)nc2)C(OC(C)=O)C1OC(C)=O (centres undefined)	149 °C
CC(C)COc1ccccc1-c1ccc(C(N)=O)c(=O)[nH]1	180 °C
CCCCn1c(CO)nc2c(N)nc3ccccc3c21	223 to 225 °C
N#Cc1cnc2ccsc2c1NCc1ccc(Cl)cc1Cl	215 to 216 °C
COC(=O)c1[nH]c(=O)[nH]c(=O)c1[N+](=O)[O-]	229 to 230 °C
Cc1cc(C)nc(NCCN(C(C)C)C(C)C)n1	79.5 to 82 °C
CCC(O)(C#CC(O)c1ccc(SC)cc1)CC (centres undefined)	64 to 65 °C
CC(C)(C)OC(=O)NCC1(Cc2noc(=S)[nH]2)CCCCC1	160 to 161 °C
CSc1ccc(C(=O)C(C)CC(=O)O)cc1 (centres undefined)	69 to 71 °C
c1ccc(-c2nc(COc3ccc(CCCCn4ccnc4)cc3)cs2)cc1	93 to 94 °C
CON=C(C#CCN1CCOCC1)C(=O)OC	43 to 45 °C
Cc1cc(Cl)cc2c1OCC(/C=C/C=C/C=C/C(=O)O)=C2	208 to 210 °C
COC(=O)C(CO)NC(=O)c1cc2cc(Cl)ccc2[nH]1 (centres undefined)	153 to 155 °C
O=C1/C(=C(\NC2CCCCC2)c2ccccc2)Sc2ccccc21	122 to 123 °C
CCC(=O)Oc1cc(OC)cc(OC)c1C(=O)C=Cc1ccc(Cl)cc1	136 °C
Cc1cc2c(s1)Nc1ccccc1N=C2N1CCN(C)[C@@H](CCc2ccccc2)C1	87 to 91 °C
CSCC[C@@H](NC(=O)OC(C)(C)C)C(=O)Oc1c(Cl)c(Cl)c(Cl)c(Cl)c1Cl	133 to 134 °C
O=C1CCC(N2C(=O)c3cccc(CNC(=O)c4cccc(Br)n4)c3C2=O)C(=O)N1 (centres undefined)	181 to 183 °C
COCc1cnc2c([N+](=O)[O-])cc(C)cc2c1Cl	107 to 111 °C

SMILES	melting point
COc1c(C)c2c(c(OS(=O)(=O)c3ccc(C)cc3)c1CC=C(C)C=O)C(=O)OC2	168 to 173 °C
CCc1nc2c(N)nc3cc(OCc4nc5ccccc5s4)ccc3c2s1	211 to 212 °C
O=C1OC[C@@H](CO)N1c1nc(-c2ccc(Br)cc2)cs1	189 to 192 °C
CCCCCCCC(=O)N(C)Cc1cccc(-c2ccc(CCC(=O)O)s2)c1	67 to 68 °C
O=C(O)c1cn(-c2cccnc2)nc1Br	270 to 278 °C
COCCn1c2cc(CCO)c(OC)cc2c2c3c(c(-c4ccccc4Cl)cc21)C(=O)NC3=O	271 to 273 °C
CCOC(=O)C1=C(O)c2cc3ccccc3n2CCC1	74 to 81 °C
COC(=O)c1ccccc1N=CNc1nnn[nH]1	199 to 200 °C
CNC(=O)N1CC(Oc2ccc(Cl)c(Cl)c2)C1	158 to 159 °C
c1ccc(CN2CCC(=C3c4ccsc4CCn4ccnc43)CC2)cc1	178 °C
CCOC(=O)C1=C(NC(=O)Nc2cc(C(=O)OC(C)C)c(Br)cc2Br)CCC1	157 to 158 °C
CC(c1ccccc1)N1CC(C(C(N)=O)(c2ccccc2)c2ccccc2)C1 (centres undefined)	153 to 154 °C
COC(=O)Cc1nc(-c2ccc(Cl)cc2)oc1Oc1cc(C)ccc1C	113 °C
CCc1cccc2c3c([nH]c12)C(CC)(CCF)OCC3 (centres undefined)	118 to 119 °C
CCCCCCOc1ccc2c(COC)c(OCCCCCC)ccc2c1COC	103 to 104 °C
Nc1nc(-c2ccc(Cl)cc2)c(CCC(=O)O)s1	116 to 118 °C
c1ccc(COc2ccc(-c3nc(COc4cccc(CCCn5ccnc5)c4)co3)cc2)cc1	144 to 145 °C
CCOC(=S)c1[nH]c(C)nc1C(C)(C)O	128 to 129 °C
COc1ccc(-n2cnc3ccc(-c4nnc(SCc5cccc(C#N)c5)o4)cc32)cc1	157 to 158 °C
Cc1cc(-n2cncn2)c2cccc(C)c2n1	99 to 100 °C
CCCN1CCC(c2ccccc2)=C(C(=O)NOCc2ccccc2)C1	143 to 145 °C
CC(C)CCNc1ccccc1NCC12CC3CC(CC(C3)C1)C2	64 to 65 °C

SMILES	melting point
O=C=Nc1cc(NS(=O)(=O)CCl)c(Cl)cc1F	102 °C
CCCCCS(=O)(=O)NC(=O)/C=C/c1ccc(OCCOC)cc1Oc1ncc(NC(=O)OC(C)(C)C)cc1C	150 °C
Cc1oc(-c2ccccc2)nc1COc1cccc(COc2cccc(CC(=O)O)c2)n1	97 to 98 °C
Cc1cc(SC#N)c(C(C)C)cc1O	72 to 75 °C
CCCC[C@]12OC1CC[C@]1(C)CC[C@@H]3C[C@@]12OC3(C)C (some centres undefined)	70 to 72 °C
CC(C)(C)OC(=O)NC1C=CCC2C(=O)NC(=O)C12 (centres undefined)	158 to 160 °C
c1ccc2c(c1)c1[nH]cnc1c1nnnn21	> 300 °C
COc1cccc(Nc2nc(OCC3CCCCC3)c3[nH]cnc3n2)c1	186 to 189 °C
CCOC(=O)CC[C@@H](C(=O)OCC)N1C(=O)c2ccc([N+](=O)[O-])cc2C1=O	65.5 to 66.5 °C
CCOC(=O)C(CCCCNC(=O)OC(C)(C)C)NC(=O)C=CC(=O)c1ccccc1 (centres undefined)	91 to 94 °C
COc1ccc(-c2cc3ncnc(Nc4ccc5[nH]ccc5c4)c3s2)cc1	150 to 180 °C
COc1cc(F)c(C(O)C#N)cc1OC (centres undefined)	112 to 114 °C
COc1ccc(CN(C)CCCOc2ccc(NC(=O)c3cccc4c(=O)c5ccccc5[nH]c34)c(C)c2)cc1OC	145 to 150 °C
COC(=O)c1ccc(OC)c(Nc2cc(Cl)cc(Cl)c2)c1	134 to 135 °C
CN(C)C(=O)C1CC2CCC1c1[nH]c3ccccc3c12 (centres undefined)	231 to 232 °C
Cc1sc(N2CCOCC2)nc1CCl	110 to 111 °C
COC(=O)c1nc(C)c(-c2ccnc3ccccc23)s1	116 to 117 °C
C=CC(O)(c1ccc(Cl)cc1)c1cccnc1 (centres undefined)	82.5 to 84 °C
CCOCCCN(C)Cc1ccc(NC(=O)C2=Cc3cc(-c4ccc(OCC)cc4)ccc3N(C)CC2)cc1	129 to 131 °C
CC1(C)CC(=O)C(S(=O)Cc2ccc(Cl)cc2)=C(O)C1 (centres undefined)	144 to 145 °C
CC(=O)Oc1ccc(C(=O)NNC(=O)OC(C)(C)C)cc1OC(C)=O	78 to 82 °C

More lines, now with the values ahead:

melting point	SMILES
91.5 to 92.8 °C	Cc1ccc2nc(-c3ccccc3F)cc(OCc3ccccc3)c2c1
231 to 236 °C	Cc1nc2c(c(-c3ccccc3)nn2C)c(-c2ccc(F)cc2)c1CO
190 to 193 °C	COC(=O)c1cccc(C(=O)c2[nH]c3cc(Cl)ccc3c2NC(C)=O)c1
143 to 145 °C	O=C(Nc1ccc(-n2nc(C(F)(F)F)cc2C(F)(F)F)cc1)c1cccc(C(F)(F)F)c1
214 to 215 °C	O=C(Nc1c[nH]nc1C(=O)NCCc1ccccc1)c1ccccn1
196 to 198 °C	O=C1Nc2cc(C(F)(F)F)ccc2C1=O
144 to 145 °C	O=C(Nc1cn(C2CCCCO2)nc1C(=O)NCCC(F)(F)F)c1ccccn1 (centres undefined)
76 to 81 °C	COC(=O)CCc1ccc(NC(=O)N(NC(=O)c2ccccc2)c2ccc(C#N)cc2)cc1
182 to 183 °C	CC(C)NC(=O)c1c(NC(=O)c2cc(C(F)(F)F)nn2-c2ncccc2Cl)ccc2ncccc12
207 °C	O=C1CCC(c2ccccc2)(c2ccccc2)[C@@H]2CN(C(=O)Cc3ccccc3C(F)(F)F)C[C@H]12 (racemic)
196 to 200 °C	CC(C)(C)c1cc2oc(-c3ccc(S(N)(=O)=O)cc3)c(-c3ccc(F)cc3)n2n1
218 to 220 °C	Cc1ncc([N+](=O)[O-])n1C(=O)Nc1ccccc1
195 to 196 °C	CC(=O)N1CCC(C(=O)Nc2ccccc2Oc2ccc(Cl)cc2)CC1
210 to 212 °C	CC(C(=O)O)c1ccc2c(Br)c(OCc3ccc4ccccc4n3)ccc2c1 (centres undefined)
216 °C	NC(=O)c1ccc(N2CCN(CCC3=CCCc4ccccc43)CC2)cc1
177 to 179 °C	N#Cc1ccc2c(c1)ncn2-c1cccc(I)c1
229 to 234 °C	CC(C)Oc1ccc(C(=O)n2nc(Nc3ccc(O)cc3)nc2N)cc1

melting point	SMILES
272 to 273 °C	CC(=O)NCCNC(=O)c1[nH]c(C)c(-c2nc3ccc(C(=O)c4ccccc4)cc3[nH]2)c1C
214 to 217 °C	O=c1ccc(Oc2ccc([N+](=O)[O-])cc2)c[nH]1
114 to 115 °C	COC(=O)c1cc(C(C)=O)c(OCc2ccccc2)cc1OCc1ccccc1
186 to 187 °C	COCCNC(=O)c1ccc(C)c(-n2c(C)cc(OCc3ccc(F)cc3CNC(=O)Nc3cc(C(C)(C)C)nn3-c3ccc(Cl)c(O)c3)c(Cl)c2=O)c1
129 to 131 °C	O=CN(O)C(CS(=O)(=O)c1ccccc1Oc1ccc(OC(F)(F)F)cc1)C(CO)CO (centres undefined)
173 to 175 °C	O=C(Nc1ccccc1[N+](=O)[O-])c1ccc(-n2nc(C(F)(F)F)cc2C(F)(F)F)cc1
177 to 179 °C	O=C(O)C(CCc1ccccc1[N+](=O)[O-])N1C(=O)c2ccccc2C1=O (centres undefined)
62 to 65 °C	CCN(CC)C(=O)n1ccc(S(=O)(=O)c2ccc(Br)cc2C(F)(F)F)n1
> 260 °C	CC(=O)Nc1ccc(S(=O)(=O)Nc2cccc3[nH]ccc23)cc1
162 to 164 °C	O=C(c1ccc(F)cc1)N1CCC[C@H](c2nc(-c3ccc([N+](=O)[O-])cc3)no2)C1
95 to 100 °C	CCc1nc2cc(NC)c(Cl)cc2n1-c1ccc(CCNC(=O)NS(=O)(=O)c2ccc(C)cc2)cc1
167 to 168 °C	Cc1cc(-c2nn(-c3cccc(C(F)(F)F)c3)ccc2=O)n(-c2ccccc2)n1
151 to 153 °C	O=C(Nc1ncnc2c1ncn2C1OC(CO)C(O)C1O)c1ccccc1 (centres undefined)
142 °C	O=C(c1nc(-c2ccccc2)nc2ccccc12)N1CCCC(CO)C1 (centres undefined)
110 to 111 °C	Cc1ccc(S(=O)(=O)Nc2ccc(Cl)cc2[N+](=O)[O-])cc1
286 to 289 °C	Cc1cc(Nc2nc(-c3ccncc3)nc3ccccc23)[nH]n1
230 °C	O=C(O)c1ccc(-c2cn(-c3ccc(OC(F)(F)F)cc3)cn2)cc1
